≈ marks a conversion by molar mass, not a printed value. Read-outs that look alike come from different tables or passages of the source.
Test system: MRSA and MSSA
Experiment: Antibacterial activity of gallic acid, various gallates and multivalent phenol derivatives alone (agar plate dilution method, MIC)
Assay type: cell-based, Staphylococcus aureus
Details: Staphylococcus aureus
Description: According to the agar plate dilution method defined by Japan Society of Chemotherapy, MIC (Minimum inhibitory concentration) was determined. CAMHA was prepared by adding 50 mg/l of Ca-ion, 25 mg/l of Mg-ion, and 2% of NaCl to Mueller-Hinton II Agar (MHA), and it was used as a medium for use in the measurement of sensitivity. The bacterial liquid was incubated at 37° C. overnight and diluted to 10^6 CFU/ml with saline.
MIC for gallic acid, various gallates and multivalent phenol derivatives alone with MRSA and MSSA were determined as described in experiment 2.

[1] = ATCC 6538 / MRSA / MSSA, ATCC6538, compound alone, read-out: MIC
[2] = COL, compound alone, read-out: MIC
[3] = MRSA #1, compound alone, read-out: MIC
[4] = MRSA #2, compound alone, read-out: MIC
[5] = MRSA #3, compound alone, read-out: MIC
[6] = MRSA #4, compound alone, read-out: MIC
[7] = MRSA #5, compound alone, read-out: MIC
[8] = MRSA #6, compound alone, read-out: MIC
[9] = MRSA #7, compound alone, read-out: MIC
[10] = MRSA #8, compound alone, read-out: MIC
[11] = MRSA #9, compound alone, read-out: MIC
[12] = MRSA #10, compound alone, read-out: MIC
[13] = MRSA #12, compound alone, read-out: MIC
[14] = MRSA #16, compound alone, read-out: MIC
[15] = MRSA #17, compound alone, read-out: MIC
[16] = MRSA #18, compound alone, read-out: MIC
[17] = MRSA #20, compound alone, read-out: MIC
[18] = MRSA #21, compound alone, read-out: MIC
[19] = MRSA #22, compound alone, read-out: MIC
[20] = MRSA #24, compound alone, read-out: MIC
[21] = MSSA #1003, compound alone, read-out: MIC
[22] = MSSA #1010, compound alone, read-out: MIC
[23] = MSSA #1020, compound alone, read-out: MIC
[24] = MSSA #1023, compound alone, read-out: MIC
[25] = MSSA #1029, compound alone, read-out: MIC
[26] = MSSA #1032, compound alone, read-out: MIC
[27] = over all strains of Table 3-2, compound alone, read-out: MIC50

SMILES	MIC [2] [µg/mL]	MIC [3] [µg/mL]	MIC [4] [µg/mL]	MIC [5] [µg/mL]	MIC [6] [µg/mL]	MIC [7] [µg/mL]	MIC [8] [µg/mL]	MIC [9] [µg/mL]	MIC [10] [µg/mL]	MIC [11] [µg/mL]	MIC [12] [µg/mL]	MIC [13] [µg/mL]	MIC [14] [µg/mL]	MIC [15] [µg/mL]	MIC [16] [µg/mL]	MIC [17] [µg/mL]	MIC [18] [µg/mL]	MIC [19] [µg/mL]	MIC [20] [µg/mL]	MIC [21] [µg/mL]	other results
CC(=O)c1ccc(O)c(O)c1O [2′,3′,4′-trihydroxyacetophenone]	62.5 (≈ 372 µM)	62.5 (≈ 372 µM)	62.5 (≈ 372 µM)	62.5 (≈ 372 µM)	62.5 (≈ 372 µM)	62.5 (≈ 372 µM)	31.3 (≈ 186 µM)	62.5 (≈ 372 µM)	62.5 (≈ 372 µM)	62.5 (≈ 372 µM)	31.3 (≈ 186 µM)	62.5 (≈ 372 µM)	62.5 (≈ 372 µM)	62.5 (≈ 372 µM)	62.5 (≈ 372 µM)	62.5 (≈ 372 µM)	62.5 (≈ 372 µM)	62.5 (≈ 372 µM)	62.5 (≈ 372 µM)	62.5 (≈ 372 µM)	MIC [1]: 62.5 µg/mL (≈ 372 µM); MIC [22]: 62.5 µg/mL (≈ 372 µM); MIC [23]: 62.5 µg/mL (≈ 372 µM); MIC [24]: 31.3 µg/mL (≈ 186 µM); MIC [25]: 31.3 µg/mL (≈ 186 µM); MIC [26]: 62.5 µg/mL (≈ 372 µM); MIC50 [27]: 62.5 µg/mL (≈ 372 µM)
CCCC(=O)c1cc(O)c(O)cc1O [2′,4′,5′-trihydroxybutyrophenone]	125 (≈ 637 µM)	62.5 (≈ 319 µM)	125 (≈ 637 µM)	62.5 (≈ 319 µM)	125 (≈ 637 µM)	62.5 (≈ 319 µM)	62.5 (≈ 319 µM)	62.5 (≈ 319 µM)	125 (≈ 637 µM)	62.5 (≈ 319 µM)	62.5 (≈ 319 µM)	125 (≈ 637 µM)	62.5 (≈ 319 µM)	125 (≈ 637 µM)	125 (≈ 637 µM)	125 (≈ 637 µM)	125 (≈ 637 µM)	125 (≈ 637 µM)	125 (≈ 637 µM)	125 (≈ 637 µM)	MIC50: 125 µg/mL (≈ 637 µM); MIC (ATCC 6538 / MRSA / MSSA): 125 µg/mL (≈ 637 µM); MIC [22]: 125 µg/mL (≈ 637 µM); MIC [23]: 125 µg/mL (≈ 637 µM); MIC [24]: 62.5 µg/mL (≈ 319 µM); MIC [25]: 62.5 µg/mL (≈ 319 µM); MIC [26]: 62.5 µg/mL (≈ 319 µM)
CCCCCCCCCCCCCCCCOC(=O)c1cc(O)c(O)c(O)c1 [Cetyl gallate]	250 (≈ 634 µM)	> 250	250 (≈ 634 µM)	> 250	> 250	> 250	125 (≈ 317 µM)	> 250	> 250	> 250	125 (≈ 317 µM)	> 250	> 250	> 250	> 250	> 250	> 250	> 250	> 250	> 250	MIC [1]: > 250 µg/mL; MIC [22]: > 250 µg/mL; MIC [23]: > 250 µg/mL; MIC [24]: > 250 µg/mL; MIC [25]: 250 µg/mL (≈ 634 µM); MIC [26]: 250 µg/mL (≈ 634 µM); MIC50 [27]: > 250 µg/mL
